We go through 16 compounds from ChEMBL document CHEMBL3779857, “Aspidofractinine and Eburnane Alkaloids from a North Borneo Kopsia. Ring-Contracted, Additional Ring-Fused, and Paucidactine-Type Aspidofractinine Alkaloids from K. pauciflora” (J Nat Prod, 2016).

Common to all, as to type: functional, cell-based
The subject of one assay is KB. Briefly: Cytotoxicity against human vincristine-sensitive KB cells assessed as cell viability after 72 hrs by MTT assay. For orientation: Tetrazolium dyes change colour on reduction, which living cells bring about.
A short description of assay [1]: Cytotoxicity against human KB/VJ300 cells assessed as cell viability after 72 hrs by MTT assay. The settings on record: KB/VJ300, 72 h.
The subject of a further assay is A549. Briefly: Cytotoxicity against human A549 cells assessed as cell viability after 72 hrs by MTT assay. The settings on record: A549, 72 h.
The nature of assay [2]: Cytotoxicity against human KB/VJ300 cells assessed as cell viability after 72 hrs by MTT assay in presence of 0.121 uM vincristine. The settings on record: KB/VJ300, 72 h.
Assay [3] can be described thus: Cytotoxicity against human PC3 cells assessed as cell viability after 72 hrs by MTT assay. The settings on record: PC-3, 72 h.
Assay [4] in a line: Cytotoxicity against human HCT116 cells assessed as cell viability after 72 hrs by MTT assay. The settings on record: HCT-116, 72 h.
Another assay relates to MCF7. Briefly: Cytotoxicity against human MCF7 cells assessed as cell viability after 72 hrs by MTT assay. The settings on record: MCF7, 72 h.

By IC50 is commonly meant the midpoint of a concentration-inhibition curve. As for `COC(=O)[C@@H]1C[C@]23CC[C@@]14Nc1ccccc1[C@@]41CCN(C=C(C=O)C2)[C@@H]31`, the IC50 (in the assay with KB; in assay [1]) was > 25 µg/mL in each case.
As to `COC(=O)[C@@H]1C[C@@]23CCCN4CC[C@@]5(c6ccc([C@@H]7C[C@@]8([C@@H](C)O)CCCN9CCc%10c(n7c7ccccc%107)[C@H]98)cc6N[C@]15CC2)[C@@H]43`, the half-maximal inhibitory concentration (IC50) was > 25 µg/mL with A549; 28.8 µM in the assay with KB; > 25 µg/mL in assay [1]; 13.6 µM in assay [2]; 15.3 µM in assay [3]; 25.1 µM in assay [4]. In the assay on MCF7, the IC50 is 22.3 µM.
Take `CCO[C@H]1C[C@@]2([C@@H](C)O)CCCN3CCc4c(n1c1ccccc41)[C@H]32`: the IC50 (with KB; in assay [1]) was > 25 µg/mL throughout.
For `COC(=O)N1c2c(ccc3c2OCO3)[C@@]23C4CN5CCC[C@]6(CC[C@]12[C@](O)(C6)OC4=O)[C@H]53` (stereo partly specified), the IC50 (in the assay on KB; in assay [1]) was > 25 µg/mL in each case.
With `COc1ccc(CCN(C)CCCC(C#N)(c2ccc(OC)c(OC)c2)C(C)C)cc1OC` (stereo unspecified), in the assay on KB, the IC50 was > 25 µg/mL.
For the compound `CC(=O)[C@@]12CCCN3CCc4c(n(c5ccccc45)[C@@H](O)C1)[C@H]32`, the IC50 (in the assay with KB; in assay [1]) was > 25 µg/mL in each case.
On to `O=C1OC2CN3CCC[C@]45CC[C@@]6(Nc7ccccc7[C@@]26[C@@H]34)[C@@H]1C5` (stereo partly specified), for which the IC50 (in the assay with KB; in assay [1]) was > 25 µg/mL throughout.
As to `COC(=O)[C@@H]1C[C@]23CC[C@@]14Nc1ccccc1[C@@]41CCN(C4=CC(=O)C[C@H]4C2)[C@@H]31`, the IC50 (in the assay with KB; in assay [1]) was > 25 µg/mL in each case.
For the compound `C[C@H]1O[C@@H]2C[C@]13CCCN1CC[C@]4(C(=O)c5ccccc5N24)[C@H]13`, the IC50 (in the assay with KB; in assay [1]) was > 25 µg/mL in each case.
Consider `CC[C@@]12CCCN3CCc4c(n(c5ccccc45)[C@H](c4ccc5c(c4)N[C@@]46CC[C@]7(CCCN8CC[C@]54[C@@H]87)C[C@H]6C(=O)O)C1)[C@H]32`, for which the IC50 (with A549; in the assay with KB; in assay [1]; in assay [2]; in assay [3]; in assay [4]) was > 25 µg/mL each time. Besides, in the assay on MCF7, the IC50 is > 25 µg/mL.
As for `COC(=O)N1c2c(OC)cccc2[C@]23C4C(=O)[C@H]5C[C@@]6(CCCN(C4=O)[C@@H]62)CC[C@]513` (stereo partly specified), the IC50 (with KB; in assay [1]) was > 25 µg/mL in each case.
As to `O=C1OC2C(=O)N3CCC[C@]45CC[C@@]6(Nc7ccccc7[C@@]26[C@@H]34)[C@@H]1C5` (stereo partly specified), the IC50 (in the assay on KB; in assay [1]) was > 25 µg/mL throughout.
On to `CC[C@]1(O)C[C@H]2CN(CCc3c([nH]c4ccccc34)[C@@](C(=O)OC)(c3cc4c(cc3OC)N(C=O)[C@H]3[C@@](O)(C(=O)OC)[C@H](OC(C)=O)[C@]5(CC)C=CCN6CC[C@]43[C@@H]65)C2)C1` [VINCRISTINE], for which the figures for the half-inhibitory concentration (IC50) (in the assay with KB; in assay [1]) were 0.0033 µM and 7.5 µM, respectively.
Regarding `COC(=O)[C@@H]1C[C@]23CC[C@@]14Nc1ccccc1[C@@]41CCN(C(=O)C2)[C@@H]31`, the concentration for half-maximal inhibition (IC50) (in the assay on KB; in assay [1]) was > 25 µg/mL each time.
Take `C[C@@H](O)[C@]12C=Cn3c4c(c5ccccc53)CCN(CCC1)[C@@H]42`: the 50% inhibitory concentration (IC50) (in the assay on KB; in assay [1]) was > 25 µg/mL in each case.
With `CC[C@@]12CCCN3CCc4c(n(c5ccccc45)[C@H](c4ccc5c(c4)N[C@@]46CC[C@]7(CCCN8CC[C@]54[C@@H]87)C[C@H]6C(=O)OC)C1)[C@H]32`, the IC50 in the assay with A549 came to 33.1 µM; with KB, 24.2 µM; in assay [1], 37.3 µM; in assay [2], 7.8 µM; in assay [3], 11.5 µM; in assay [4] it was 12.3 µM. Further, in the assay with MCF7, the IC50 is 15.7 µM.
